According to PubChem BioAssay (NCI):
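GI50 marks 50% less growth. TGI denotes the concentration required for complete inhibition of growth.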

What was measured:
Assay in all cases: growth of human tumour cells (NCI), 384-well format
A498 renal = tested on: A498 renal
A549 NSCLC = tested on: A549 NSCLC
ACHN renal = tested on: ACHN renal
BT-549 breast = tested on: BT-549 breast
CAKI-1 renal = tested on: CAKI-1 renal
COLO 205 colon = tested on: COLO 205 colon
DU-145 prostate = tested on: DU-145 prostate
EKVX NSCLC = tested on: EKVX NSCLC
HCT-116 colon = tested on: HCT-116 colon
HCT-15 colon = tested on: HCT-15 colon
HL-60(TB) leukemia = tested on: HL-60(TB) leukemia
HOP-62 NSCLC = tested on: HOP-62 NSCLC
HOP-92 NSCLC = tested on: HOP-92 NSCLC
HS 578T breast = tested on: HS 578T breast
HT29 colon = tested on: HT29 colon
IGROV1 ovarian = tested on: IGROV1 ovarian
K-562 leukemia = tested on: K-562 leukemia
KM12 colon = tested on: KM12 colon
M14 melanoma = tested on: M14 melanoma
MALME-3M melanoma = tested on: MALME-3M melanoma
MCF7 breast = tested on: MCF7 breast
MDA-MB-231 breast = tested on: MDA-MB-231 breast
MDA-MB-435 melanoma = tested on: MDA-MB-435 melanoma
MDA-MB-468 breast = tested on: MDA-MB-468 breast
MOLT-4 leukemia = tested on: MOLT-4 leukemia
NCI-H226 lung = tested on: NCI-H226 lung
NCI-H23 lung = tested on: NCI-H23 lung
NCI-H322M lung = tested on: NCI-H322M lung
NCI-H522 lung = tested on: NCI-H522 lung
OVCAR-3 ovarian = tested on: OVCAR-3 ovarian
OVCAR-4 ovarian = tested on: OVCAR-4 ovarian
OVCAR-5 ovarian = tested on: OVCAR-5 ovarian
OVCAR-8 ovarian = tested on: OVCAR-8 ovarian
PC-3 prostate = tested on: PC-3 prostate
RXF 393 renal = tested on: RXF 393 renal
SF-268 CNS = tested on: SF-268 CNS
SF-295 CNS = tested on: SF-295 CNS
SF-539 CNS = tested on: SF-539 CNS
SK-MEL-2 melanoma = tested on: SK-MEL-2 melanoma
SK-MEL-28 melanoma = tested on: SK-MEL-28 melanoma
SN12C renal = tested on: SN12C renal
SNB-19 CNS = tested on: SNB-19 CNS
SNB-75 CNS = tested on: SNB-75 CNS
SR leukemia = tested on: SR leukemia
SW-620 colon = tested on: SW-620 colon
T-47D breast = tested on: T-47D breast
TK-10 renal = tested on: TK-10 renal
U251 glioblastoma = tested on: U251 glioblastoma
UACC-257 melanoma = tested on: UACC-257 melanoma
UACC-62 melanoma = tested on: UACC-62 melanoma
UO-31 renal = tested on: UO-31 renal

## CNC(=O)c1cn(C[C@H](F)CCc2ccc(NC(=O)Cc3cc(OC4CC(F)(F)C4)cc(C)n3)nn2)nn1
A498 renal
  GI50: 0.163 µM
  TGI: 0.492 µM
A549 NSCLC
  GI50: 0.0278 µM
  TGI: 0.0879 µM
ACHN renal
  GI50: > 100 µM
  TGI: > 100 µM
BT-549 breast
  GI50: > 100 µM
  TGI: > 100 µM
CAKI-1 renal
  GI50: 0.38 µM
  TGI: > 100 µM
COLO 205 colon
  GI50: > 100 µM
  TGI: > 100 µM
DU-145 prostate
  GI50: 0.401 µM
  TGI: 7.68 µM
EKVX NSCLC
  GI50: > 100 µM
  TGI: > 100 µM
HCT-116 colon
  GI50: > 100 µM
  TGI: > 100 µM
HCT-15 colon
  GI50: > 100 µM
  TGI: > 100 µM
HL-60(TB) leukemia
  GI50: > 100 µM
  TGI: > 100 µM
HOP-62 NSCLC
  GI50: 0.127 µM
  TGI: 0.594 µM
HOP-92 NSCLC
  GI50: > 100 µM
  TGI: > 100 µM
HS 578T breast
  GI50: 0.0721 µM
  TGI: 0.533 µM
HT29 colon
  GI50: > 100 µM
  TGI: > 100 µM
IGROV1 ovarian
  GI50: > 100 µM
  TGI: > 100 µM
K-562 leukemia
  GI50: 85.1 µM
  TGI: > 100 µM
KM12 colon
  GI50: 0.946 µM
  TGI: > 100 µM
M14 melanoma
  GI50: > 100 µM
  TGI: > 100 µM
MALME-3M melanoma
  GI50: > 100 µM
  TGI: > 100 µM
MCF7 breast
  GI50: > 100 µM
  TGI: > 100 µM
MDA-MB-231 breast
  GI50: 0.389 µM
  TGI: > 100 µM
MDA-MB-435 melanoma
  GI50: > 100 µM
  TGI: > 100 µM
MDA-MB-468 breast
  GI50: > 100 µM
  TGI: > 100 µM
MOLT-4 leukemia
  GI50: 66.8 µM
  TGI: > 100 µM
NCI-H226 lung
  GI50: > 100 µM
  TGI: > 100 µM
NCI-H23 lung
  GI50: > 100 µM
  TGI: > 100 µM
NCI-H322M lung
  GI50: 0.0772 µM
  TGI: 0.321 µM
NCI-H522 lung
  GI50: 0.31 µM
  TGI: > 100 µM
OVCAR-3 ovarian
  GI50: > 100 µM
  TGI: > 100 µM
OVCAR-4 ovarian
  GI50: > 100 µM
  TGI: > 100 µM
OVCAR-5 ovarian
  GI50: > 100 µM
  TGI: > 100 µM
OVCAR-8 ovarian
  GI50: > 100 µM
  TGI: > 100 µM
PC-3 prostate
  GI50: > 100 µM
  TGI: > 100 µM
RXF 393 renal
  GI50: 0.0276 µM
  TGI: 0.11 µM
SF-268 CNS
  GI50: 0.407 µM
  TGI: > 100 µM
SF-295 CNS
  GI50: 1.51 µM
  TGI: > 100 µM
SF-539 CNS
  GI50: > 100 µM
  TGI: > 100 µM
SK-MEL-2 melanoma
  GI50: 0.436 µM
  TGI: > 100 µM
SK-MEL-28 melanoma
  GI50: > 100 µM
  TGI: > 100 µM
SN12C renal
  GI50: 0.0398 µM
  TGI: 0.32 µM
SNB-19 CNS
  GI50: > 100 µM
  TGI: > 100 µM
SNB-75 CNS
  GI50: > 100 µM
  TGI: > 100 µM
SR leukemia
  GI50: 18.8 µM
  TGI: > 100 µM
SW-620 colon
  GI50: > 100 µM
  TGI: > 100 µM
T-47D breast
  GI50: > 100 µM
  TGI: > 100 µM
TK-10 renal
  GI50: 0.31 µM
  TGI: > 100 µM
U251 glioblastoma
  GI50: 0.119 µM
  TGI: > 100 µM
UACC-257 melanoma
  GI50: > 100 µM
  TGI: > 100 µM
UACC-62 melanoma
  GI50: > 100 µM
  TGI: > 100 µM
UO-31 renal
  GI50: > 100 µM
  TGI: > 100 µM
